Measurements from US20220409582A1, “COMBINATION THERAPIES COMPRISING PANOBINOSTAT FOR THE TREATMENT OF CHOLANGIOCARCINOMA” (SEALD AS, priority 2019, published 2022).
Like-named read-outs stand apart in the source and are kept apart here.

Key:
CC-SW-1 cell line = experiment: Cell TitreGlo cell viability, CC-SW-1 cholangiocarcinoma cells; type: cell-based, human; conditions: for IC50: Homo sapiens
Experimental: (§1) Various cholangiocarcinoma (CCA) cell lines were used for this drug screening.
(§2) For panobinostat as single substance treatment seven cholangiocarcinoma cell lines were used. Panobinostat was then tested in combination with 23 other drugs on four cholangiocarcinoma cell lines. A single concentration of the combination drug was added based on a previously determined IC20 value for the combination drug tested alone on each of the four cell lines.
(§3) The viability data for each plate were normalized to the average of eight replicates of DMSO at 0.1% and seven replicates of Benzethonium Chloride (BzCl) at 100 uM. BzCl serves as a cell killing control that accounts for background signal from dead cells in the CTG luminescence assay. Raw luminescence data were normalized according to the following equation: […]
(§4) The normalized data for each dose response curve were then fit using the function drm from the R package drc. This function uses a four parameter log-logistic curve to fit the dose response data, resulting in values for curve minimum, maximum, IC50, and slope. In the case where a log-logistic curve could not be fit to the data, a logistic curve was used instead.

HuCC-T1 cell line = experiment: Cell TitreGlo cell viability, HuCC-T1 cholangiocarcinoma cells; type: cell-based, human; conditions: for IC50: Homo sapiens, HuCCT-1
Experimental: as §1, §2, §3, §4

EGI-1 cell line = experiment: Cell TitreGlo cell viability, EGI-1 cholangiocarcinoma cells; type: cell-based, human
Experimental: as §1, §2, §3, §4

CC-LP-1 cell line = experiment: Cell TitreGlo cell viability, CC-LP-1 cholangiocarcinoma cells; type: cell-based; conditions: Homo sapiens, single substance treatment, cell viability 48 h post drug addition
Experimental: as §1
(§5) For panobinostat as single substance treatment seven cholangiocarcinoma cell lines were used. Panobinostat was then tested in combination with 23 other drugs on four cholangiocarcinoma cell lines. A single concentration of the combination drug was added based on a previously determined IC20 value for the combination drug tested alone on each of the four cell lines. The cell line TFK-1 was insensitive to some tested drugs.

TFK-1 cell line = experiment: Cell TitreGlo cell viability, TFK-1 cholangiocarcinoma cells; type: cell-based, human
Experimental: as §1, §2, §3, §4

KMBC cell line = experiment: Cell TitreGlo cell viability, KMBC cholangiocarcinoma cells; type: cell-based; conditions: single substance treatment, cell viability 48 h post drug addition
Experimental: as §1, §5

KMCH-1 cell line = experiment: Cell TitreGlo cell viability, KMCH-1 combined cholangio- and hepatocarcinoma cells; type: cell-based; conditions: single substance treatment, cell viability 48 h post drug addition
Experimental: as §1, §5

[1] = tested on: normal cholangiocytes, cell line H69 (CVCL_8121); conditions: read-out: H69 cell line Mono, panobinostat alone
From the text: The effects of various cytotoxic agents on the toxicity of panobinostat in normal cholangiocytes was examined. The cell line H69 (CVCL_8121) was used in experimental procedures described above to determine the IC50 value for panobinostat (the primary drug) on these cells when used in combination with cytotoxic agents (secondary drug) added to the cells at their IC20 concentrations.
The larger difference the more toxic the combination.

IC50 (CC-SW-1 cell line; panobinostat alone, read-out: CC-SW-1 cell line Mono): 18.4 nM | IC50 (CC-SW-1 cell line; single substance treatment, CC-SW-1, cell viability 48 h post drug addition, read-out: IC50): 12 nM | IC50 (HuCC-T1 cell line; panobinostat alone, read-out: HuCCT-1 cell line Mono): 42.4 nM | IC50 (HuCC-T1 cell line; single substance treatment, HuCC-T1, cell viability 48 h post drug addition, read-out: IC50): 90 nM | IC50 (EGI-1 cell line; Homo sapiens, EGI-1, panobinostat alone, read-out: EGI-1 cell line Mono): 62.9 nM | IC50 (EGI-1 cell line; single substance treatment, EGI-1, cell viability 48 h post drug addition, listed as panobinostat, read-out: IC50): 99 nM | IC50 (EGI-1 cell line; single substance treatment, EGI-1, cell viability 48 h post drug addition, read-out: IC50): 36 nM | IC50 (CC-LP-1 cell line): 81 nM | IC50 (TFK-1 cell line; Homo sapiens, 48 h, single substance treatment, TFK-1, cell viability 48 h post drug addition, read-out: IC50): 70 nM | IC50 (TFK-1 cell line; Homo sapiens, panobinostat alone, read-out: TFK-1 cell line Mono): 51.8 nM | IC50 (TFK-1 cell line; single substance treatment, TFK-1, cell viability 48 h post drug addition, read-out: IC50): 95 nM | IC50 (KMBC cell line): 88 nM | IC50 (KMCH-1 cell line): 99 nM
SMILES: Cc1[nH]c2ccccc2c1CCNCc1ccc(/C=C/C(=O)NO)cc1 [Panobinostat, (E)-N-hydroxy-3-[4-[[2-(2-methyl-1H-indol-3-yl)ethylamino]methyl]phenyl]prop-2-enamide]
Therapeutic index Mono (CC-SW-1 cell line; IC50 in H69 normal cells / IC50 in CC-SW-1, panobinostat alone): 3.1 | Therapeutic index Mono (HuCC-T1 cell line; IC50 in H69 normal cells / IC50 in HuCCT-1, panobinostat alone): 0.9 | Therapeutic index Mono (EGI-1 cell line; IC50 in H69 normal cells / IC50 in EGI-1, panobinostat alone): 0.9 | Therapeutic index Mono (TFK-1 cell line; IC50 in H69 normal cells / IC50 in TFK-1, panobinostat alone): 1.1 | IC50 [1]: 56.8 nM
